The text below walks through data of publication PMC10729961, “Putative purine nucleoside interacting residues in the malaria parasite purine uptake transporter PfENT1 are critical for transporter function” (PLOS ONE, 2023).

SMILES strings stand for the structures. Entries after “also recorded” stand apart in the source; their conditions may differ.

The subject of experiment [1] is yeast expressing N51C PfENT1. The experiment in a line: 5-Fluorouridine (5-FUrd) toxicity assay. In kind it is cell-based. Conditions: 500 μM adenine plus 125 μM 5-FUrd, OD600 at 24 h. As to the method: (§1) 5-FUrd toxicity was measured in a subset of the PfENT1 mutants. Mutants were grown overnight in SDM with 1 mM adenine. Meanwhile, purine auxotrophic yeast were grown in YPD overnight. Yeast strains were spun down and resuspended in sterile water then added to the honeycomb plates with SDM media with NP40 (final concentration of 0.1%) containing either no adenine, 500 μM adenine, or 500 μM adenine plus 125 μM 5-FUrd (Fisher Scientific Cat. #AAJ6208303) with an initial OD600 = 0.05 and a final volume of 150 μL. Typically, 10 μL of yeast (final concentration of resuspended yeast OD600 = around 0.8) were added to 140 μL of media. Each trial contained triplicates. The 100-well honeycomb plate was placed in the Bioscreen C for 24-h under continuous high shaking at 30°C. The endpoint OD600 was measured at 24 h. Each experiment was repeated at least three times on separate days.

For experiment [2], the system named is yeast expressing S290C PfENT1. The experiment in a line: 5-Fluorouridine (5-FUrd) toxicity assay. It is filed as cell-based. As to conditions: 500 μM adenine plus 125 μM 5-FUrd, OD600 at 24 h. As to the method: as §1
In experiment [3] the test system is yeast expressing Q135C PfENT1. The experiment in a line: 5-Fluorouridine (5-FUrd) toxicity assay. In kind it is cell-based. Conditions: 500 μM adenine plus 125 μM 5-FUrd, OD600 at 24 h. As to the method:
as §1

In experiment [4] the test system is yeast expressing F286C PfENT1. The experiment in a line: 5-Fluorouridine (5-FUrd) toxicity assay. It is filed as cell-based. Conditions: 500 μM adenine plus 125 μM 5-FUrd, OD600 at 24 h. As to the method: as §1
Experiment [5] concerns yeast expressing WT PfENT1. In words: 5-Fluorouridine (5-FUrd) toxicity assay. In kind it is cell-based. As to conditions: 500 μM adenine plus 125 μM 5-FUrd, OD600 at 24 h. As to the method:
as §1

Experiment [6] concerns yeast expressing L50C PfENT1. The experiment in a line: 5-Fluorouridine (5-FUrd) toxicity assay. In kind it is cell-based. As to conditions: 500 μM adenine plus 125 μM 5-FUrd, OD600 at 24 h. As to the method: as §1
The subject of experiment [7] is yeast expressing R291C PfENT1. In words: 5-Fluorouridine (5-FUrd) toxicity assay. In kind it is cell-based. As to conditions: 500 μM adenine plus 125 μM 5-FUrd, OD600 at 24 h. As to the method: as §1
Experiment [8] has as its system yeast expressing W53C PfENT1. In words: 5-Fluorouridine (5-FUrd) toxicity assay. Conditions: 500 μM adenine plus 125 μM 5-FUrd, OD600 at 24 h. It is filed as cell-based. As to the method:
as §1

Experiment [9] deals with purine auxotrophic yeast (ade2Δ, fui1Δ). In words: 5-Fluorouridine (5-FUrd) toxicity assay. In kind it is cell-based. As to conditions: ade2Δ strain; 500 μM adenine plus 125 μM 5-FUrd; OD600 at 24 h. As to the method:
as §1

The test system of experiment [10] is yeast expressing D287C PfENT1. The experiment in a line: 5-Fluorouridine (5-FUrd) toxicity assay. In kind it is cell-based. As to conditions: 500 μM adenine plus 125 μM 5-FUrd, OD600 at 24 h. As to the method: as §1
The subject of the next experiment is PfENT1 S49A. As to conditions: cited from earlier work.
Experiment [11] has as its system PfENT1 Q135A. As to conditions: cited from earlier work.
The subject of experiment [12] is PfENT1 R291A. As to conditions: cited from earlier work.
Experiment [13] deals with PfENT1 D287A. Conditions: cited from earlier work.
The subject of experiment [14] is PfENT1 W53A. Conditions: yeast expressing W53A, Y190A background; cited from earlier work.
Experiment [15] relates to PfENT1 Q135A. Conditions: yeast expressing Q135A, Y190A background; cited from earlier work.
The test system of experiment [16] is PfENT1 R291A. Conditions: yeast expressing R291A, Y190A background; cited from earlier work.
Experiment [17] relates to PfENT1 D287A. Conditions: yeast expressing D287A, Y190A background; cited from earlier work.
Experiment [18] deals with PfENT1 W53A. Conditions: cited from earlier work.

For `O=c1[nH]c(=O)n([C@@H]2O[C@H](CO)[C@@H](O)[C@H]2O)cc1F` [5-FUrd, 5-Fluorouridine], the 5-FUrd assay result in experiment [1] was “did not grow; also recorded: killed-functional”; in [2] it was “did grow; also recorded: growth-non-functional*”; in experiment [3] it was “did grow; also recorded: growth-non-functional*”; in experiment [4], “did not grow; also recorded: killed-functional”; in [5] it was “did not grow; also recorded: killed-functional”; in [6] it was “did not grow; also recorded: killed-functional”. Besides, the 5-FUrd assay entry was “did grow; also recorded: growth-non-functional*” in experiment [7], “did grow; also recorded: growth-non-functional*” in [8], “growth-non-functional” in [9] and “did grow; also recorded: growth-non-functional*” in experiment [10].

`O=c1[nH]cnc2c1ncn2[C@@H]1O[C@H](CO)[C@@H](O)[C@H]1O` [inosine]: the “inosine binding by ITC” value in the experiment with PfENT1 S49A was “did not bind”; in the experiment on PfENT1 Q135A [11], “did not bind”; in the experiment with PfENT1 R291A [12], “bound with lower affinity”; with PfENT1 D287A [13], “did not bind”; in the experiment with PfENT1 W53A [18] it was “bound with lower affinity”. The “uptake of radioactive inosine” value with PfENT1 W53A [14], in the experiment with PfENT1 Q135A [15], in the experiment with PfENT1 R291A [16] and in the experiment with PfENT1 D287A [17] was “did not show uptake” each time.
